Assay results as given in patent publication US7138504B2, “Reagents and methods for mycophenolic acid immunoassay” (Microgenics Corporation, priority 2004, dated 2006).

Tests used:
[1] = system: antibody raised against MPAlc; assay: CEDIA MPA assay specificity (cross-reactivity) in MPA-free plasma; assay type: binding, goats
Experimental: “Cross reactivity” is determined in a quantitative immunoassay by establishing a standard curve using known dilutions of MPA. The standard curve is then used to calculate the apparent concentration of the interfering substance present in various known amounts in samples assayed under substantially similar conditions. The percent (%) cross-reactivity is the measured concentration divided by the tested concentration multiplied by 100%. […] If MPA is present in the sample, it binds to the antibody, leaving the ED portion of the ED-containing conjugate free to restore enzyme activity upon association with enzyme acceptor (EA) fragments in the assay reaction mixture. The active enzyme is then capable of producing a quantifiable reaction product when exposed to appropriate substrate. If MPA is not present in the sample, the antibody binds to the ED-containing conjugate inhibiting association of the ED fragments with the EA fragments, thus inhibiting restoration of enzyme activity. The amount of reaction product and resultant absorbance change are proportional to the amount of MPA in the specimen. […] (active metabolite), were added to MPA-free plasma for measuring cross-reactivity. The estimated cross-reactivity of each compound was calculated using the formula: (measured concentration-control concentration)×100% concentration tested Additionally, commonly co-prescribed and over-the-counter (OTC) drugs were tested in MPA-free plasma for cross-reactivity in the […] assay.

[2] = system: inosine-monophosphate dehydrogenase (IMPDH); conditions: cited from earlier work

COc1c(C)c2c(c(O[C@@H]3O[C@H](C(=O)O)[C@@H](O)[C@H](O)[C@H]3O)c1C/C=C(\C)CCC(=O)O)C(=O)OC2 [7-O-Glucuronide MPA]
% Cross-Reactivity ([1]; concentration 1000 μg/ml): 0.0%

COc1c(C)c2c(c(O)c1C/C=C(\C)CCC(=O)O[C@@H]1O[C@H](C(=O)O)[C@@H](O)[C@H](O)[C@H]1O)C(=O)OC2 [Acyl glucuronide MPA]
% Cross-Reactivity ([1]; concentration 10 μg/ml): 192% | inhibition of IMPDH [2]: activity similar to that of MPA

COc1c(C)c2c(c(O)c1C/C=C(\C)CCC(=O)O)C(=O)OC2 [MPA, Mycophenolic acid]
inhibition of IMPDH [2]: potent and specific inhibitor

COc1c(C)c2c(c(O)c1C/C=C(\C)CCC(=O)OCCN1CCOCC1)C(=O)OC2 [Mycophenolate mofetil, 2-morpholinoethyl(E)-6-(1,3-dihydro-4-hydroxy-6-methoxy-7-methyl-3-oxo-5-isobenzofuranyl)-4-methyl-4-hexenoate]
% Cross-Reactivity ([1]; concentration 926 μg/ml): 123%
